{
  "source": "patent US20070231406A1",
  "about": "“Use of gallium to treat biofilm-associated infections” (priority 2006, published 2007)",
  "key": {"[1]": {"system": "Pseudomonas aeruginosa Xen5", "assay": "Biophotonic monitoring of catheter-associated UTI with bioluminescent P. aeruginosa Xen5 in CF-1 female mice", "format": "in vivo", "conditions": "for Percent bacterial growth in animals compared to untreated control: ciprofloxacin 30 mg/kg b.i.d. oral", "description": "(§1) Catheter-associated UTI with Pseudomonas aeruginosa Xen5 (10^6 CFU/catheter) in CF-1 female mice was established as described by Kadurugamuwa et al. (2005) Infection and Immunity 73(7):3878-87). Gallium maltolate (GaM) was assessed for efficacy against urinary tract infection (UTI) by P. aeruginosa, alone or in combination with ciprofloxacin (cipro) using bioluminescent engineered P. aeruginosa Xen5 in a CF-1 female mice UTI model that allows real time monitoring of infection with the Xenogen IVIS® Imaging System.\n(§2) Catheter-associated UTI with P. aeruginosa (10^6 colony forming units (CFU)/catheter) were established in mice and treated 2 days after infection for 4 consecutive days with GaM alone; or cipro alone; or the combination of GaM and cipro. A second cycle of treatment was started on days 9-11 and the study terminated on day 21. Controls included saline-treated uninfected and infected animals.\nCiprofloxacin US Pharmacopeia, Rockville, Md.) and gallium maltolate were administered by oral gavage. Ciprofloxacin was given in 0.2 mL of water and gallium maltolate in 0.2 mL water containing 1% carboxylmethyl cellulose. A second group of animals served as an untreated infection control group by being implanted with infected catheters and treated with saline. In another control group, animals were implanted with sterile catheters and served as a negative control.\nTherapeutic agents were readministered for 3 consecutive days, after 4 days of cessation of the initial 4-day therapy."}, "[2]": {"system": "P. aeruginosa Xen 5", "format": "in vivo, Pseudomonas aeruginosa", "conditions": "ciprofloxacin 30 mg/kg b.i.d. oral", "description": "as §1, §2"}, "[3]": {"system": "P. aeruginosa Xen5", "format": "in vivo, Pseudomonas aeruginosa", "conditions": "ciprofloxacin 30 mg/kg b.i.d. oral", "description": "as §1, §2"}},
  "note": "Like-named read-outs stand apart in the source and are kept apart here.",
  "data": [
    {"molecule": "O=C(O)c1cn(C2CC2)c2cc(N3CCNCC3)c(F)cc2c1=O", "note": "[Ciprofloxacin, reference compound]", "values": [
      {"measurement": "Percent bacterial growth in animals compared to untreated control", "setting": "[1]; Day 2", "result": 100, "unit": "%"},
      {"measurement": "Percent bacterial growth in animals compared to untreated control", "setting": "[1]; Day 5", "result": 3, "unit": "%"},
      {"measurement": "Percent bacterial growth in animals compared to untreated control", "setting": "[1]; Day 8", "result": 9, "unit": "%"},
      {"measurement": "Percent bacterial growth in animals compared to untreated control", "setting": "[1]; Day 10", "result": 2, "unit": "%"},
      {"measurement": "Percent bacterial growth in animals compared to untreated control", "setting": "[1]; Day 15", "result": 138, "unit": "%"},
      {"measurement": "Percent bacterial growth in animals compared to untreated control", "setting": "[1]; Day 21", "result": 272, "unit": "%"},
      {"measurement": "Bioluminescent signal after discontinuing first ciprofloxacin treatment", "setting": "[1]; approximately two days after discontinuing the initial 4-day therapy", "result": "reestablishment of the infection upon cessation of antibiotic therapy"},
      {"measurement": "Bioluminescent signal in the bladder compared to untreated control", "setting": "[1]; ciprofloxacin 30 mg/kg b.i.d., after four days of treatments", "result": "rapid decline in bioluminescent signal to almost nearly to undetectable levels"},
      {"measurement": "Bioluminescence signal on re-administration of antibiotic", "setting": "[1]; re-administration for three consecutive days", "result": "repeat decline in the bioluminescence signal"},
      {"measurement": "Infection after discontinuation of second bout of ciprofloxacin treatment", "setting": "[1]; soon after discontinuation of second treatment cycle", "result": "infection re-established once again and approximately reached untreated levels"},
      {"measurement": "Bacterial counts in urine, Geometric Mean", "setting": "[2]; 7 days after infection", "result": "3.3 × 10^3 CFU/ml"},
      {"measurement": "Range of bacterial counts in urine", "setting": "[2]; 7 days after infection", "result": "2.0 × 10^2-7.0 × 10^5 CFU/ml"},
      {"measurement": "Bacterial counts in urine, Geometric Mean", "setting": "[2]; 11 days after infection", "result": "2.0 × 10^2 CFU/ml"},
      {"measurement": "Range of bacterial counts in urine", "setting": "[2]; 11 days after infection", "result": "2.0 × 10^2 CFU/ml"},
      {"measurement": "Bacterial counts in urine, Geometric Mean", "setting": "[2]; 14 days after infection", "result": "1.1 × 10^5 CFU/ml"},
      {"measurement": "Range of bacterial counts in urine", "setting": "[2]; 14 days after infection", "result": "2.0 × 10^2-1.2 × 10^7 CFU/ml"},
      {"measurement": "Bacterial counts in urine, Geometric Mean", "setting": "[2]; 16 days after infection", "result": "3.2 × 10^4 CFU/ml"},
      {"measurement": "Range of bacterial counts in urine", "setting": "[2]; 16 days after infection", "result": "2.0 × 10^2-6.0 × 10^5 CFU/ml"},
      {"measurement": "Bacterial counts in urine, Geometric Mean", "setting": "[2]; 17 days after infection", "result": "1.2 × 10^5 CFU/ml"},
      {"measurement": "Range of bacterial counts in urine", "setting": "[2]; 17 days after infection", "result": "2.0 × 10^2-8.0 × 10^6 CFU/ml"},
      {"measurement": "Bacterial counts in urine, Geometric Mean", "setting": "[2]; 21 days after infection", "result": "2.2 × 10^5 CFU/ml"},
      {"measurement": "Range of bacterial counts in urine", "setting": "[2]; 21 days after infection", "result": "2.0 × 10^2-3.6 × 10^7 CFU/ml"},
      {"measurement": "% Mortality", "setting": "[3]", "result": 12.5, "unit": "%"},
      {"measurement": "No. of animals with a kidney signal at day 21/Total no. of animals", "setting": "[3]", "result": "1/7"}
    ]}
  ]
}
